Experimental data published in patent US12029738B2, “Antiproliferative compounds and methods of use thereof” (Celgene Corporation, priority 2017, dated 2024).

How the values were obtained:
H929-1051 cells = assay: Cell apoptosis assay (Caspase-3 live cell imaging); format: cell-based, human
Source text: FIG. 1A and FIG. 1B. (FIG. 1A) Change in apoptosis induction, as measured by area under the curve of Caspase 3 fold induction (aka apoptosis index) over time in lenalidomide resistant H929-1051 cells. Abscissa: log nM (compound), ordinate: apoptosis index. The lines of best fit are a 3-parameter logistic equation calculated in GraphPad Prism. (FIG. 1B) The area under the curve of the concentration-response curves for Compound 1 and Compound A in H929-1051 cells were used to compare the compounds' ability to induce apoptosis after a 6 h exposure and then dilution resulting in about a 20-fold reduction of compound concentration.
Cell Apoptosis Assays: The ability of the compounds to induce apoptosis was assessed in selected MM cell lines at the time points and compound concentrations indicated. As a marker of apoptosis, the level of Caspase-3 activity was measured in MM cells using live cell imaging. To image suspension cells, 96-well plates were coated with fibronectin so cells would adhere and lie flat on the bottom of the plate. Cells were added to 96-well plates using a Multidrop Combi Reagent Dispenser (Thermo Scientific, Waltham, MA) the night before compound addition. […] Cleavage of the Caspase-3 enzyme substrate and cellular confluence in each well was detected via imaging at 10× on the IncuCyte ZOOM System every 4-6 h for 5 days. […]
Compound 1 Induced Apoptosis in Multiple Myeloma Cell Lines. […] To determine the ability of compounds to induce apoptosis and to characterize kinetically the onset of this process, Caspase-3 induction was measured over time in lenalidomide-resistant, H929-1051 cells (FIG. 1A and FIG. 1B). H929-1051 cells were incubated with the compounds at concentrations of 1 nM, 10 nM, 100 nM and 1000 nM and apoptosis was assessed over time. […] Next, the area under the curve (AUC) was calculated for each concentration and used to generate the concentration-response curves for each compound. This provided quantitative evidence of the ability of Compound 1 to induce apoptosis in H929-1051.

THLE-2 = assay: Anti-proliferative counter-screen (CellTiter-Glo, 72 h); format: cell-based; details: Homo sapiens
[1] = test system: unstimulated primary human PBMCs; assay: as above; format: cell-based; details: PBMC
H929-1051 xenograft = assay: Lenalidomide-resistant H929-1051 xenograft, continuous QD dosing; format: in vivo, mouse
Source text: FIG. 4. Antitumor activity of Compound 2 with continuous dosing in lenalidomide-resistant H929-1051 xenograft model. Female SCID mice were inoculated with 10×10^6 H929-1051 tumor cells into the right flank. Mice were randomized into treatment groups (n=10/group) at the time of treatment initiation. Test article treatment started on Day 14 when the tumors were approximately 120 mm^3.
Antitumor Activity of Compound 2 in Lenalidomide-resistant Multiple Myeloma Xenograft Model. The purpose of the study was to test the single agent antitumor activity of Compound 2 in an H929-1051 xenograft model with once daily dosing (QD) at 1, 3, 10, and 30 mg/kg.

[2] = test system: neutrophil progenitors (bone marrow CD34+ cells from healthy donors); assay: Ex vivo maturation of myeloid progenitors to adult neutrophils
Protocol: Methods: Ex vivo cultures of bone marrow (BM) CD34^+ cells from healthy donors (HD) were used to investigate neutrophil-specific ex vivo maturation. In vitro differentiation of neutrophil progenitors was induced by adding stem cell factor (SCF), fins-related tyrosine kinase 3 ligand (Flt3-L), and granulocyte colony stimulating factor (G-CSF) to culture media. Cell differentiation was evaluated by flow cytometry as the percentage of cells in 5 subpopulations: hematopoietic stem cells (HSC, CD34^+/CD33^−/CD11b^−) and Stage I (CD34^+/CD33^+/CD11b^−), Stage II (CD34^−/CD33^+/CD11b^−), Stage III (CD34^−/CD33^+/CD11b^+), and Stage IV (CD34^−/CD33^−/CD11b^+) (from immature to mature), as shown in FIG. 7. The effects of Compound 2 on maturation of neutrophil progenitors were assessed and different dosing schedules were evaluated to gain insight into the schedule dependence of these events.
Longer Daily Compound 2 Exposures. To further characterize the potential impacts of different schedules on arrest of neutrophil progenitor maturation and subsequent recovery, changes in the relative proportions of each of the aforementioned stages of myeloid progenitor […] CD34^+ BM cells derived from healthy donors were exposed to Compound 2 on 3 or 5 consecutive days starting on Day 10 for 6 h (Donors No. 1 and 2) or for 24 h (Donors No. 3 and 4) each day. […]

N#Cc1ccc(N2CCN(Cc3ccc(COc4cccc5c4CN(C4CCC(=O)NC4=O)C5=O)cc3)CC2)c(F)c1 (racemic) [Compound 1, 4-(4-(4-(((2-(2,6-dioxopiperidin-3-yl)-1-oxoisoindolin-4-yl)oxy)methyl)benzyl)piperazin-1-yl)-3-fluorobenzonitrile] was tested, and the “time of near maximal apoptosis induction” value (H929-1051 cells; 1-1000 nM) was roughly 72 h, the “time at which apoptosis induction begins” value (H929-1051 cells; 1-1000 nM, all concentrations) was “around 48 h” and the “apoptotic induction (total AUC) compared to Compound A” value (H929-1051 cells; 6 h exposure then about 20-fold dilution, relative to Compound A) was 126%.
In the case of N#Cc1ccc(N2CCN(Cc3ccc(COc4cccc5c4CN([C@H]4CCC(=O)NC4=O)C5=O)cc3)CC2)c(F)c1 [Compound 2, (S)-4-(4-(4-(((2-(2,6-dioxopiperidin-3-yl)-1-oxoisoindolin-4-yl)oxy)methyl)benzyl)piperazin-1-yl)-3-fluorobenzonitrile], the IC50 (THLE-2) is reported as greater than 10 µM, the IC50 [1] is reported as greater than 10 µM and the tumor volume reduction (H929-1051 xenograft; 1 mg/kg QD) is reported as 75%. It also gave a tumor volume reduction (H929-1051 xenograft; 3 mg/kg QD) of 86%, a tumor volume reduction (H929-1051 xenograft; 10 mg/kg QD) of 84% and a tumor volume reduction (H929-1051 xenograft; 30 mg/kg QD) of 85%. For the same compound, the loss of viability [2] was “no loss of viability was observed” and the “late-stage maturation of neutrophil progenitors” value ([2]; 1, 10, 100 nM, 2, 4, 6 h exposures for up to 3 consecutive days) was “blocked”.
